Test results from patent publication US20040009181A1, “Treatment of ophthalmic conditions” (priority 2002, published 2004).
Ends that are not written are not given here.

Experiments:
[1] = test system: Herpes zoster virus (HZV); details: Eye 8: 70-74 (1994); cited from earlier work
[2] = centrally administered; Peptides 9, 1285-8 (1989); cited from earlier work
[3] = test system: C. albicans (clinical isolate); assay: C. albicans viability, colony forming units (incl. comparison with fluconazole and ACTH); type: cell-based, Candida albicans; set-up: potency in reducing C. albicans viability / inhibition of C. albicans CFU: dose or concentration left out as unconfirmed; details: for effect on C. albicans colony forming units: 10^−15 to 10^−4M, 2 hours at 37° C., FIG. 7; for potency in reducing C. albicans viability: comparison among peptides, fluconazole and ACTH
Protocol: C. albicans (clinical isolate) were obtained from the collection of the Department of Microbiology, Ospedale Maggiore di Milano. C. albicans were maintained on Sabouraud'[…] periodically transferred to Sabouraud's agar plates and incubated for 48 hours at 28° C. To prepare stationary growth phase yeast, a colony was taken from the agar plate and transferred into 30 ml Sabouraud-dextrose broth and incubated for 72 hours at 32° C. Cells were centrifuged at 100×g for 10 minutes and the pellet was washed twice with distilled water. Cells were counted and suspended in Hank's balanced salt solution (“HBSS”) to the desired concentration. Viability, determined by the exclusion of 0.01% methylene blue, remained >98%. […] ID NO. […] Cells were then washed in cold distilled water and diluted with HBSS to a concentration of 100 organisms/ml. One ml aliquots were dispensed on blood agar plates and incubated for 48 hours at 37° C. Organism viability was estimated from the number of colonies formed. […] (SEQ. […] Fluconazole is a well established antifungal agent. The potency of the peptides in reducing C. albicans viability is studied in comparison with fluconazole and ACTH using similar procedures as in Example VII. […] There were at least six replicates for each concentration of peptide. […] Their inhibitory activity was similar to that of fluconazole. The “core” α-MSH sequence, α-MSH [4-10] (SEQ. […] (SEQ. ID NO. 3) and α-MSH [11-13] […] (SEQ. ID NO. 4) (p<0.05).

[4] = test system: corneal epithelial cells; details: Lens Eye Toxic. Res. 6: 59-85 (1989); cited from earlier work
[5] = Peptides 12, 767-71 (1991); cited from earlier work
[6] = test system: Staphylococcus aureus (ATCC29213); assay: S. aureus viability, colony forming units; type: cell-based; set-up: dose or concentration left out as unconfirmed; details: 2 hours at 37° C.; FIG. 5
Protocol: Staphylococcus aureus (ATCC29213) was obtained from the collection of the Department of Microbiology, Ospedale Maggiore di Milano. […] (SEQ. ID NO 4), α-MSH [11-13] […] S. aureus were then washed in cold distilled water and diluted with HBSS to a concentration of 100 organisms/ml. One ml aliquots were dispensed on blood agar plates and incubated for 24 hours at 37° C. Organism viability was estimated from the number of colony forming units. (SEQ. ID NO. 4) and α-MSH [11-13]

[7] = Peptides 6, 273-5 (1985); cited from earlier work
[8] = test system: Herpes simplex virus blepharitis; assay: Treatment of viral ophthalmic infection, HSV blepharitis, patient; type: in vivo; details: ophthalmic aqueous solution 10^−5 M, 3-5 drops four times daily for 7 days
Protocol: A patient is diagnosed as having Herpes simplex virus blepharitis. […] The patient is treated with 3-5 drops of the ophthalmic aqueous solution onto the surface of eyes four times daily for 7 days.

[9] = test system: HIV-1 infected promonocytic U1 cell line; assay: HIV-p24 release by TNF-α stimulated U1 cells (ELISA); type: cell-based; details: 10^−13 to 10^−4 M, FIG. 2
From the text: Before use, cells were washed three times with HBSS (Gibco) to remove extracellular virus.

[10] = test system: Keratomycosis; assay: Treatment of fungal ophthalmic infection, Keratomycosis, patient; type: in vivo; details: ophthalmic aqueous solution 10^−5 M, 3-5 drops four times daily for 7 days
From the text: Upon examination, a patient is diagnosed as having Keratomycosis.

[11] = test system: S. aureus with recombinant human urokinase; assay: Urokinase-induced growth-enhancement of S. aureus, colony counts; type: cell-based, Staphylococcus aureus; details: 10^−6 M; urokinase 500 U, four hours at 37° C.; FIG. 6; listed as α-MSH [11-13]
Protocol: In this experiment, the influence of α-MSH on urokinase-induced growth-enhancement is determined. Hart, D. A.; Loule, T.; Krulikl, W.; Reno, C., Staphylococcus Aureus Strains Differ in Their in Vitro Responsiveness to Human Urokinase: Evidence that Methicillin-Resistant Strains are Predominantly Nonresponsive to the Growth-Enhancing Effects of Urokinase, Can. J. Microbiol. 42, 1024-31 […]. […] (SEQ. ID NO. 4) or α-MSH [11-13] (SEQ. ID NO. […]) at 10^−6 M. Appropriate dilutions of S. aureus were dispensed on agar plates and colonies counted after 24 hours incubation at 37° C.

[12] = test system: HIV-1 RNA in PMA-stimulated U1 cells; assay: HIV transcription, Northern blot analysis of HIV-RNA in PMA-stimulated U1 cells; type: cell-based; details: 10^−5M; PMA (1 ng/mL) stimulated U1 cells, 24 h; FIG. 4
From the text: Total RNA was extracted by the guanidine thiocyanate phenol method using an RNA isolation kit (Tripure, Boehringer Mannheim, Indianapolis, Ind.), following the manufacturer's instructions. Ten μg of total RNA were separated by 0.8% agarose/formaldehyde gel electrophoresis and transferred onto nylon membrane. The filters were baked and hybridized for 18 hr with α^32 P-labeled HIV-full length probe (kind gift of L. Turchetto and E. Vicenzi, S. Raffaele Hospital, Milan, Italy). The radiolabeling reaction was performed using a DNA labeling kit (Ready-to-go, Pharmacia Biotech, San Francisco, Calif.). Filters were washed and exposed to X-ray film for 5 days. The labeled probe was removed by washing at 80° C. in 0.1×SSC containing 0.1% sodium dodecyl sulphate and then rehybridized with α^32 P-labeled glyceraldehyde-3-phosphate dehydrogenase (GAPDH) cDNA probe. Densitometric analysis was performed using ImageMaster™ VDS 3.0 software (Pharmacia Biotech) and results were expressed as density units.

[13] = test system: infectious keratitis of bacterial etiology; assay: Treatment of bacterial ophthalmic infection, bacterial keratitis, patient; type: in vivo; details: ophthalmic aqueous solution 10^−5 M, 3-5 drops four times daily for 7 days
From the text: A patient presents complaining of eye pain when blinking and blurred vision. Upon examination the cornea appears subtly less transparent than normal cornea and may have ulcers on its surface. The diagnosis is infectious keratitis of bacterial etiology, which is confirmed by laboratory findings.

[14] = test system: HIV-1 infected promonocytic U1 cells; assay: HIV-p24 and reverse transcriptase release by U1 cells stimulated by IL-6, IL-10, PMA or crowding; type: cell-based; details: 10^−5 M; U1 cells induced by IL-6, IL-10, PMA, and in crowding conditions; FIG. 3
Protocol: In all experiments, each condition was tested in triplicate.

Nc1nc2c(ncn2COCCO)c(=O)[nH]1 [Acyclovir]
preventative effect on ocular complications of HZV [1]: little or no preventative effect

8-13 sequence: α-MSH 8-13 sequence (RWGKPV; ends and bridges not checked; UniProt P01189 145-150, looked up, fragment)
antipyretic potency relative to α-MSH (11-13) sequence [2]: greater than that of the 11-13 sequence

MEHFRWG (Ac-MEHFRWG-NH2) [α-MSH [4-10]]
inhibition of C. albicans CFU ([3]; FIG. 8): approximately 50%

O=c1[nH]c(=O)n([C@H]2C[C@H](O)[C@@H](CO)O2)cc1I [Idoxurine]
toxicity to corneal epithelial cells [4]: toxic to corneal epithelial cells

[D-K^11] α-MSH 11-13
anti-inflammatory activity relative to L-form tripeptide α-MSH 11-13 [5]: same general potency as the L-form

9-13 sequence: α-MSH 9-13 sequence (WGKPV; ends and bridges not checked; UniProt P01189 146-150, looked up, fragment)
antipyretic potency relative to α-MSH (11-13) sequence [2]: almost devoid of activity

Val-Pro-Lys-AcCys-s-s-CysAc-Lys-Pro-Val [KPV dimer]
effect on S. aureus colony formation (CFU) [6]: inhibited | effect on C. albicans colony forming units [3]: inhibited

10-13 sequence: α-MSH (11-13) with glycine added to form the 10-13 sequence (GKPV; ends and bridges not checked; UniProt P01189 147-150, looked up, fragment)
antipyretic potency relative to α-MSH (11-13) sequence [2]: slightly decreased potency

ACTH (18-39): ACTH fragment (18-39), also called CLIP [reference compound]
potency in reducing C. albicans viability ([3]; FIG. 8): did not reduce

[Nle^4 DPhe^7]-α-MSH
potency in reducing fever relative to parent peptide α-MSH [7]: approximately ten times more potent than the parent peptide

HFRWGKPV (Ac-HFRWGKPV-NH2) [α-MSH [6-13], α-MSH from residue 6 through residue 13]
potency in reducing C. albicans viability ([3]; FIG. 8): most effective

KPV
HSV blepharitis symptom after treatment [8]: substantially reduced | effect on S. aureus colony formation (CFU) [6]: inhibited | effect on p24 release [9]: significantly inhibited | outcome of Keratomycosis after treatment [10]: either shows marked improvement or fully recovers | effect on urokinase-enhanced S. aureus colony formation [11]: significantly inhibited the enhancing effect of urokinase | reduction of spliced HIV-1 RNA [12]: approximately 50% | reduction of unspliced HIV-1 RNA [12]: approximately 50% | outcome of bacterial keratitis after treatment [13]: either shows marked improvement or fully recovers | effect on C. albicans colony forming units [3]: greatly reduced | potency in reducing C. albicans viability ([3]; FIG. 8): most effective | effect on RT (reverse transcriptase) release [14]: significantly inhibited | effect on p24 release [14]: significantly inhibited

ACTH (1-39): Adrenocorticotropic Hormone (1-39) (SYSMEHFRWGKPVGKKRRPVKVYPNGAEDESAEAFPLEF; Corticotropin; UniProt P01189 138-176, looked up) [reference compound]
potency in reducing C. albicans viability ([3]; FIG. 8): did not reduce
